One experiment deals with BV2 microglia. Kind of experiment: pAKT in LPS-stimulated BV2 microglia (HTRF). The class given is cell-based. Conditions: for Inflammatory Readout: pAKT (significance of reduction): LPS pre-treatment 45 minutes, compound 1 hour. The source says:
Microglia are the resident immune cells of the brain and, when activated by pathological conditions, promote broad-spectrum neuroinflammation. When activated by toxic exogenous substances, microglia produce excessive reactive oxygen species (ROS), nitric oxide (NO), and proinflammatory cytokines, which further propagates disease pathogenesis. BV2 microglia were used as an in-vitro cell model to evaluate mechanisms relevant to inflammation in the CNS. Upon activation of TLR4 with LPS, microglia are activated and trigger excessive oxidative stress, a process that is partially mediated by AKT phosphorylation (pAKT) and activation. Microglia activation also leads to a range of changes in gene expression.
Compound A19 active metabolite (Compound A19-AM) was investigated for whether it could reduce the inflammatory effect of LPS in microglia. Inflammatory activation of BV2 microglia cells was stimulated by pre-treatment with LPS for 45 minutes, followed by the addition of test compound for 1 hour (pAKT) or 23.5 hours (NO and gene expression panel). For pAKT measurement, cells were lysed and the pAKT measurement was conducted using the HTRF system. For NO production, culture supernatants were collected and assessed for the presence of nitrite, a primary metabolic product of nitric oxide.
Quantification of nitrite production in cell culture supernatants was accomplished using the Griess Reagent System (Promega, G2930). Measurement of pAKT was assessed utilizing Phospho-AKT 1/2/3 (Ser473) […] Cellular Detection Kit (CisBio, 64AKSPEH).
Data analysis was performed via One-way ANOVA with Dunnett's multiple comparisons test compared to LPS-stimulated, vehicle treated cultures using Prism statistical software (GraphPad). Tabular data indicates significance of reduction in the indicated analyte at the indicated dose.

For experiment [1], the system named is primary culture of both cortical neurons and microglia. Kind of experiment: Microglial activation (Iba1 area) after Aβ1-42 challenge. The arrangement: key to Significant decrease in Iba1 area, compared to vehicle treated (Aβ challenge): “NS” indicates a non-significant change in Iba1 area; “+” indicates a p value < 0.05 in Fisher's LSD post-test compared to Aβ challenged. The experiment is classed as cell-based.

Molecules are shown by their SMILES. Square brackets hold non-standard residues; d marks the D form. Peptide text beside a SMILES is read from it. * marks the point of attachment. Hexanoyl = CCCCCC(=O)*; Ahx = NCCCCCC(=O)O

With `CCCCCC(=O)N[C@@H](Cc1ccc(O)cc1)C(=O)N[C@H](C(=O)NCCCCCC(N)=O)[C@@H](C)CC` [Compound A19 active metabolite, dihexa] (Hexanoyl-Tyr-Ile-[Ahx]-NH2), the “AKT phosphorylation (result in words)” value in the experiment on BV2 microglia (LPS-stimulated BV2) is on record as “significantly reduced”. Moreover, the “Inflammatory Readout: pAKT (significance of reduction)” value in the experiment on BV2 microglia (dose 0.001 nM) and in the experiment with BV2 microglia (dose 1 nM) was “++ (“++” indicates a p value < 0.005 in Dunnett's multiple comparison)” throughout. Further, the “Significant decrease in Iba1 area, compared to vehicle treated (Aβ challenge)” value in experiment [1] (100 nM, Pre-(60 min) and Co- Aβ challenge) is recorded as “+ (“+” indicates a p value < 0.05 in Fisher's LSD post-test compared to Aβ challenged)”; in experiment [1] (100 nM, Pre-(60 min) and post-(24 h) Aβ challenge), “NS”; in experiment [1] (100 nM, Pre-(60 min), Co-, and post-(24 h) Aβ challenge) it was “+ (“+” indicates a p value < 0.05 in Fisher's LSD post-test compared to Aβ challenged)”; in experiment [1] (1 μM, Pre-(60 min) and Co- Aβ challenge), “+ (“+” indicates a p value < 0.05 in Fisher's LSD post-test compared to Aβ challenged)”; in experiment [1] (1 μM, Pre-(60 min) and post-(24 h) Aβ challenge), “NS”; in experiment [1] (1 μM, Pre-(60 min), Co-, and post-(24 h) Aβ challenge) it was “+ (“+” indicates a p value < 0.05 in Fisher's LSD post-test compared to Aβ challenged)”. Further, the “Significant decrease in Iba1 area, compared to vehicle treated (Aβ challenge)” value in experiment [1] (60 min pre-Aβ challenge, concentration not given) is on record as “+ (“+” indicates a p value < 0.05 in Fisher's LSD post-test compared to Aβ challenged)”. Further, in experiment [1] (Aβ1-42 challenge 72 hours), the “Microglial activation, as measured by Iba1 area (result in words)” value is “significantly reduced microglial activation”.

(Values after US20250275976A1, “Methods of Treating Neuroinflammatory Conditions” (Athira Pharma, Inc., priority 2022, published 2025).)
